# Measured values from PMC4551390 (Leukemia, 2015).
# How the values were obtained:
# [1] = system: relapsed and refractory CLL patients; experiment: Phase I dose escalation: toxicity and tolerability; type: in vivo, human
# XIAP = experiment: Western blot protein expression in patient samples; type: in vivo, human; settings: 2 and 4 hours of treatment vs pretreatment
# T-cells = settings: pre-clinical; cited from earlier work
# [2] = treatment related, all cohorts, N=52
compound,measurement,setting,value
CCc1cnn2c(NCc3ccc[n+]([O-])c3)cc(N3CCCC[C@H]3CCO)nc12 [Dinaciclib],maximally tolerated dose,[1]; 2 hour infusion weekly x 3 of every 4 weeks,14 mg/m^2
same,other patients who discontinued therapy due to toxicity,[1]; all patients,Five
same,patients off therapy for adverse events,[1]; all patients,10%
same,deaths within 30 days of last dose,"[1]; all patients, two due to disease progression",3
same,No Pts with Dose Reduction,[1]; cohort 5 mg/m^2,0
same,Pts with DLT,[1]; cohort 5 mg/m^2,0
same,No Pts with Dose Reduction,[1]; cohort 7 mg/m^2,0
same,Pts with DLT,[1]; cohort 7 mg/m^2,1
same,No Pts with Dose Reduction,[1]; cohort 10 mg/m^2,1
same,Pts with DLT,[1]; cohort 10 mg/m^2,0
same,No Pts with Dose Reduction,[1]; cohort 14 mg/m^2,5
same,Pts with TLS,[1]; cohort 14 mg/m^2,4
same,Pts with TLS (Dialysis),"[1]; cohort 14 mg/m^2, requiring dialysis",1
same,No Pts with Dose Reduction,[1]; cohort 17 mg/m^2,1
same,Pts with TLS,[1]; cohort 17 mg/m^2,1 (1)
same,Pts with TLS (Dialysis),"[1]; cohort 17 mg/m^2, requiring dialysis",1 (1)
same,No Pts with Dose Reduction,[1]; cohort 7→10→14 mg/m^2,1
same,Pts with TLS,[1]; cohort 7→10→14 mg/m^2,1 (1)
same,No Pts with Dose Reduction,[1]; cohort 10→14 mg/m^2,1
same,Pts with TLS,[1]; cohort 10→14 mg/m^2,2
same,"Anemia, Grade 1",[1]; [2],8 (15) No (%)
same,"Anemia, Grade 2",[1]; [2],17 (33) No (%)
same,"Anemia, Grade 3",[1]; [2],14 (27) No (%)
same,"Anemia, Grade 4",[1]; [2],1 (2) No (%)
same,"Anemia, Total",[1]; [2],40 (77) No (%)
same,"Constipation, Grade 1",[1]; [2],4 (8) No (%)
same,"Constipation, Grade 2",[1]; [2],1 (2) No (%)
same,"Constipation, Grade 3",[1]; [2],1 (2) No (%)
same,"Constipation, Grade 4",[1]; [2],0 (0) No (%)
same,"Constipation, Total",[1]; [2],6 (12) No (%)
same,"Cytokine release, Grade 1",[1]; [2],1 (2) No (%)
same,"Cytokine release, Grade 2",[1]; [2],6 (12) No (%)
same,"Cytokine release, Grade 3",[1]; [2],1 (2) No (%)
same,"Cytokine release, Grade 4",[1]; [2],0 (0) No (%)
same,"Cytokine release, Total",[1]; [2],8 (15) No (%)
same,"Diarrhea, Grade 1",[1]; [2],14 (27) No (%)
same,"Diarrhea, Grade 2",[1]; [2],7 (13) No (%)
same,"Diarrhea, Grade 3",[1]; [2],2 (4) No (%)
same,"Diarrhea, Grade 4",[1]; [2],0 (0) No (%)
same,"Diarrhea, Total",[1]; [2],23 (44) No (%)
same,"Fatigue, Grade 1",[1]; [2],7 (13) No (%)
same,"Fatigue, Grade 2",[1]; [2],8 (15) No (%)
same,"Fatigue, Grade 3",[1]; [2],2 (4) No (%)
same,"Fatigue, Grade 4",[1]; [2],0 (0) No (%)
same,"Fatigue, Total",[1]; [2],17(33) No (%)
same,"Herpes infection, Grade 1",[1]; [2],2 (4) No (%)
same,"Herpes infection, Grade 2",[1]; [2],1 (2) No (%)
same,"Herpes infection, Grade 3",[1]; [2],0 (0) No (%)
same,"Herpes infection, Grade 4",[1]; [2],0 (0) No (%)
same,"Herpes infection, Total",[1]; [2],3 (6) No (%)
same,"Hyperglycemia, Grade 1",[1]; [2],8 (15) No (%)
same,"Hyperglycemia, Grade 2",[1]; [2],16 (31) No (%)
same,"Hyperglycemia, Grade 3",[1]; [2],11 (21) No (%)
same,"Hyperglycemia, Grade 4",[1]; [2],0 (0) No (%)
same,"Hyperglycemia, Total",[1]; [2],35 (67) No (%)
same,"Hyperkalemia, Grade 1",[1]; [2],7 (13) No (%)
same,"Hyperkalemia, Grade 2",[1]; [2],3 (6) No (%)
same,"Hyperkalemia, Grade 3",[1]; [2],3 (6) No (%)
same,"Hyperkalemia, Grade 4",[1]; [2],3 (6) No (%)
same,"Hyperphosphatemia, Grade 1",[1]; [2],6 (12) No (%)
same,"Hyperphosphatemia, Grade 2",[1]; [2],1 (2) No (%)
same,"Hyperphosphatemia, Grade 3",[1]; [2],0 (0) No (%)
same,"Hyperphosphatemia, Grade 4",[1]; [2],0 (0) No (%)
same,"Hyperphosphatemia, Total",[1]; [2],7 (13) No (%)
same,"Hypoalbuminemia, Grade 1",[1]; [2],12 (23) No (%)
same,"Hypoalbuminemia, Grade 2",[1]; [2],3 (6) No (%)
same,"Hypoalbuminemia, Grade 3",[1]; [2],0 (0) No (%)
same,"Hypoalbuminemia, Grade 4",[1]; [2],0 (0) No (%)
same,"Hypoalbuminemia, Total",[1]; [2],15 (29) No (%)
same,"Hypocalcemia, Grade 1",[1]; [2],17 (33) No (%)
same,"Hypocalcemia, Grade 2",[1]; [2],1 (2) No (%)
same,"Hypocalcemia, Grade 3",[1]; [2],9 (17) No (%)
same,"Hypocalcemia, Grade 4",[1]; [2],0 (0) No (%)
same,"Hypocalcemia, Total",[1]; [2],27 (52) No (%)
same,"Hypokalemia, Grade 1",[1]; [2],17 (33) No (%)
same,"Hypokalemia, Grade 2",[1]; [2],1 (2) No (%)
same,"Hypokalemia, Grade 3",[1]; [2],9 (17) No (%)
same,"Hypokalemia, Grade 4",[1]; [2],0 (0) No (%)
same,"Hypokalemia, Total",[1]; [2],27 (52) No (%)
same,"Hyponatremia, Grade 1",[1]; [2],18 (35) No (%)
same,"Hyponatremia, Grade 2",[1]; [2],0 (0) No (%)
same,"Hyponatremia, Grade 3",[1]; [2],1 (2) No (%)
same,"Hyponatremia, Grade 4",[1]; [2],0 (0) No (%)
same,"Hyponatremia, Total",[1]; [2],19 (37) No (%)
same,"Hypophosphatemia, Grade 1",[1]; [2],6 (12) No (%)
same,"Hypophosphatemia, Grade 2",[1]; [2],5 (10) No (%)
same,"Hypophosphatemia, Grade 3",[1]; [2],6 (12) No (%)
same,"Hypophosphatemia, Grade 4",[1]; [2],1 (2) No (%)
same,"Hypophosphatemia, Total",[1]; [2],18 (35) No (%)
same,"Increased ALT, Grade 1",[1]; [2],6 (12) No (%)
same,"Increased ALT, Grade 2",[1]; [2],9 (17) No (%)
same,"Increased ALT, Grade 3",[1]; [2],5 (10) No (%)
same,"Increased ALT, Grade 4",[1]; [2],0 (0) No (%)
same,"Increased ALT, Total",[1]; [2],20 (38) No (%)
same,"Increased AST, Grade 1",[1]; [2],11 (21) No (%)
same,"Increased AST, Grade 2",[1]; [2],8 (15) No (%)
same,"Increased AST, Grade 3",[1]; [2],13 (25) No (%)
same,"Increased AST, Grade 4",[1]; [2],2 (4) No (%)
same,"Increased AST, Total",[1]; [2],34 (65) No (%)
same,"Increased Alkaline Phosphatase, Grade 1",[1]; [2],8 (15) No (%)
same,"Increased Alkaline Phosphatase, Grade 2",[1]; [2],1 (2) No (%)
same,"Increased Alkaline Phosphatase, Grade 3",[1]; [2],0 (0) No (%)
same,"Increased Alkaline Phosphatase, Grade 4",[1]; [2],0 (0) No (%)
same,"Increased Alkaline Phosphatase, Total",[1]; [2],9 (17) No (%)
same,"Increased bilirubin, Grade 1",[1]; [2],5 (10) No (%)
same,"Increased bilirubin, Grade 2",[1]; [2],0 (0) No (%)
same,"Increased bilirubin, Grade 3",[1]; [2],0 (0) No (%)
same,"Increased bilirubin, Grade 4",[1]; [2],0 (0) No (%)
same,"Increased bilirubin, Total",[1]; [2],5 (10) No (%)
same,"Increased creatinine, Grade 1",[1]; [2],11 (21) No (%)
same,"Increased creatinine, Grade 2",[1]; [2],3 (6) No (%)
same,"Increased creatinine, Grade 3",[1]; [2],0 (0) No (%)
same,"Increased creatinine, Grade 4",[1]; [2],0 (0) No (%)
same,"Increased creatinine, Total",[1]; [2],14 (27) No (%)
same,"Nausea, Grade 1",[1]; [2],10 (19) No (%)
same,"Nausea, Grade 2",[1]; [2],3 (6) No (%)
same,"Nausea, Grade 3",[1]; [2],0 (0) No (%)
same,"Nausea, Grade 4",[1]; [2],0 (0) No (%)
same,"Nausea, Total",[1]; [2],13 (25) No (%)
same,"Neutropenia, Grade 1",[1]; [2],3 (6) No (%)
same,"Neutropenia, Grade 2",[1]; [2],2 (4) No (%)
same,"Neutropenia, Grade 4",[1]; [2],28 (54) No (%)
same,"Neutropenia, Total",[1]; [2],44 (85) No (%)
same,"Pharyngitis/sinusitis/respiratory infection, Grade 1",[1]; [2],2 (4) No (%)
same,"Pharyngitis/sinusitis/respiratory infection, Grade 2",[1]; [2],2 (4) No (%)
same,"Pharyngitis/sinusitis/respiratory infection, Grade 3",[1]; [2],0 (0) No (%)
same,"Pharyngitis/sinusitis/respiratory infection, Grade 4",[1]; [2],0 (0) No (%)
same,"Pharyngitis/sinusitis/respiratory infection, Total",[1]; [2],4 (8) No (%)
same,"Pneumonia, Grade 1",[1]; [2],0 (0) No (%)
same,"Pneumonia, Grade 2",[1]; [2],0 (0) No (%)
same,"Pneumonia, Grade 3",[1]; [2],2 (4) No (%)
same,"Pneumonia, Total",[1]; [2],2 (4) No (%)
same,"Sepsis, Grade 1",[1]; [2],0 (0) No (%)
same,"Sepsis, Grade 2",[1]; [2],0 (0) No (%)
same,"Sepsis, Grade 3",[1]; [2],1 (2) No (%)
same,"Sepsis, Grade 4",[1]; [2],0 (0) No (%)
same,"Sepsis, Total",[1]; [2],1 (2) No (%)
same,"Thrombocytopenia, Grade 1",[1]; [2],10 (19) No (%)
same,"Thrombocytopenia, Grade 2",[1]; [2],6 (12) No (%)
same,"Thrombocytopenia, Grade 3",[1]; [2],11 (21) No (%)
same,"Thrombocytopenia, Grade 4",[1]; [2],10 (19) No (%)
same,"Thrombocytopenia, Total",[1]; [2],37 (71) No (%)
same,"Tumor lysis syndrome, Grade 1",[1]; [2],0 (0) No (%)
same,"Tumor lysis syndrome, Grade 2",[1]; [2],0 (0) No (%)
same,"Tumor lysis syndrome, Grade 3",[1]; [2],7 (13) No (%)
same,"Tumor lysis syndrome, Grade 4",[1]; [2],1 (2) No (%)
same,"Tumor lysis syndrome, Total",[1]; [2],8 (15) No (%)
same,"Urosepsis, Grade 1",[1]; [2],0 (0) No (%)
same,"Urosepsis, Grade 2",[1]; [2],0 (0) No (%)
same,"Urosepsis, Grade 3",[1]; [2],0 (0) No (%)
same,"Urosepsis, Grade 4",[1]; [2],1 (2) No (%)
same,"Urosepsis, Total",[1]; [2],1 (2) No (%)
same,XIAP protein level,XIAP,no significant change
same,cytotoxicity to T-cells,T-cells,not cytotoxic
